# Peptide text beside a SMILES is read from it.
# Key:
# [1] = biological target: T1, full length PSD-95 (Homo sapiens, UniProt P78352); assay: competitive fluorescence polarization (FP) binding to full length PSD-95, tracer AB-143; settings: Ki,app
# T1 construct: FL-PSD-95 (32M3C-PSD-95 FL 1-724); made in house; host or cells: E. coli BL21-DE3-pLysS
# [2] = tested on: ePSD; assay: confocal microscopy of ePSD LLPS droplets; assay type: biochemical
# Method: (§1) Confocal microscopy was done using a Zeiss LSM780 using a 63x NA 1.4 plan apochromat oil objective using Argon 488 nm 25 mW, 543 nm HeNe 1.2 mW and 633 nm HeNe 5mW lasers using a detection wavelength of 490-538 nm for the 488 channel, 556-627 nm for the 543 channel, 636-758 for the 633 channel. Images were acquired using averaging of four line scans and 12-bit. The LLPS droplets were prepared in the desired concentration in PBS-TCEP at desired pH, mostly pH 7.4 unless stated otherwise, and added to an untreated lab tec (155411PK, Nunc, ThermoFischer) and imaged after being allowed to settle for 15 min at 25°C. For samples containing fluorescent protein or peptide the content of fluorescent protein or peptide was kept at 1-10% of indicated total protein or peptide concentration.
# [3] = tested on: ePSD (PSD-95, Homer3, Shank3, GKAP, SynGAP); assay: SDS-PAGE sedimentation assay with ePSD; assay type: biochemical; settings: n = 3; for promotion of LLPS of ePSD: SDS-PAGE sedimentation and quantification, ePSD incubated with indicated peptides; for LLPS induction in the PSD-95 containing ePSD: peptide 10 μM and 100 μM
# Method: (§2) Proteins were all mixed in the desired concentration in PBS-TCEP and equilibrated for 10 min before centrifugation at 20,000 g for 15 min at 25°C using a temperature-controlled table top centrifuge. Following centrifugation, the supernatant was collected and the pellet was re-suspended in an equal amount of PBS-TCEP, usually 50 μL. To ensure proper suspension of LLPS samples were vortexed before addition of SDS buffer boiling at 95°C for 5 min. Supernatant and pellet fractions were run on any kD Mini-PROTEAN TGX Precast Protein Gels (10 or 15 wells, BioRad 4569036 or 4569033). Gels were imaged using a Li-COR Odyssey gel scanner and band intensities were analyzed using ImageJ. Significance was evaluated using one-way ANOVA with Dunnett post-test, one-way ANOVA with Tukey post-test or a two-way ANOVA with Dunnett post-test.
# [4] = biological target: T1, full length PSD-95; assay: SDS-PAGE sedimentation assay with PSD-95; assay type: biochemical; settings: SDS-PAGE sedimentation and quantification; n = 3
# Method: as §2
# [5] = tested on: PSD-95; assay: confocal microscopy of LLPS droplets of fluorescently labeled PSD-95; assay type: biochemical, human; settings: peptide 36 μM, Alexa 633-PSD-95 30 nM labeled/3 μM unlabeled, validated by SDS-PAGE sedimentation
# Method: as §1
# [6] = tested on: 15N-PDZ1-2 of PSD-95; assay: 1H-15N-HSQC NMR chemical shift perturbation; assay type: binding; settings: 512 μM StgA222-R236/128 μM 15N-PDZ1-2; 50 mM Tris pH 8, 200 mM NaCl, 1 mM TCEP, 25°C
# Method: All NMR spectra were recorded on 600 MHz or 750 MHz Bruker Avance III HD spectrometers equipped with QCI or TCI cryo-probes at 25°C in 50 mM Tris pH 8, 200 mM NaCl, 1 mM TCEP, 10% D2O and 250 μM DSS. Spectra were processed with NMRPipe ([Delaglio et al., 1995]) or qMDD ([Kazimierczuk and Orekhov, 2011]) if non-uniform sampling was used for the acquisition and analyzed using CCPNMR analysis ([Skinner et al., 2016]). Amide nitrogen and proton chemical shift assignments were kindly shared by Prof. […] Combined chemical shift perturbations were calculated between the unbound and the bound states using.
# [7] = SDS-PAGE sedimentation, ePSD 3 μM
# T1 sequence (P78352 whole entry): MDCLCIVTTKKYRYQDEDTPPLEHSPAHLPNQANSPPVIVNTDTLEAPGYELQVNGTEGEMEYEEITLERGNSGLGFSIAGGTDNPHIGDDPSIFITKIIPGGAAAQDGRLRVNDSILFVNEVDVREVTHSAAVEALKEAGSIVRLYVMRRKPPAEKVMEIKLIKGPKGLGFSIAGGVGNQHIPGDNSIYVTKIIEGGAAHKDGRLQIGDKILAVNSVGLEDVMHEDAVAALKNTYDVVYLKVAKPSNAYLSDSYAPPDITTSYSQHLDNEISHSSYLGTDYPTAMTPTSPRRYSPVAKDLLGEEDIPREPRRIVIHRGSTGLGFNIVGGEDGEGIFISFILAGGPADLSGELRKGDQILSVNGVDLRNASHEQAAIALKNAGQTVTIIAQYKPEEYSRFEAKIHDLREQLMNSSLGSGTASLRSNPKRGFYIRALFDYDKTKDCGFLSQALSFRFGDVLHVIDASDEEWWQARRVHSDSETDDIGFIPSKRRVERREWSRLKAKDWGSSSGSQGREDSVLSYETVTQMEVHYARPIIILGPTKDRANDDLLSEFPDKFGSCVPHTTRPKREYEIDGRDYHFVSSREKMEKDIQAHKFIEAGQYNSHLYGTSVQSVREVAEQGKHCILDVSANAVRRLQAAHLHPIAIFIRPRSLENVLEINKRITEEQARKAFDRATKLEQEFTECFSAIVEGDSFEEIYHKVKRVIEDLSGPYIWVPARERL
compound,measurement,setting,value
CC[C@H](C)[C@H](NC(=O)[C@H](CO)NC(=O)[C@H](CO)NC(=O)[C@H](CC(C)C)NC(=O)[C@H](CCCCN)NC(=O)[C@H](CCCN=C(N)N)NC(=O)[C@H](CCCN=C(N)N)NC(=O)[C@H](CCCN=C(N)N)NC(=O)[C@H](CCC(N)=O)NC(=O)[C@H](CCCN=C(N)N)NC(=O)[C@H](CCCN=C(N)N)NC(=O)[C@H](CCCCN)NC(=O)[C@H](CCCCN)NC(=O)[C@H](CCCN=C(N)N)NC(=O)CNC(=O)[C@@H](N)Cc1ccc(O)cc1)C(=O)N[C@@H](CCC(=O)O)C(=O)N[C@@H](CO)C(=O)N[C@@H](CC(=O)O)C(=O)N[C@H](C(=O)O)C(C)C [NA-1] (H-YGRKKRRQRRRKLSSIESDV-OH),Ki,"[1]; pH 6.4, competitive FP, pH 6.4",7.2 µM
same,Ki,"[1]; pH 7.4, competitive FP, pH 7.4",4.5 µM
same,Ki,"[1]; pH 8.4, competitive FP, pH 8.4",2.6 µM
same,Ki,"[1]; pH 9.4, competitive FP, pH 9.4",4.1 µM
CC[C@H](C)[C@H](NC(=O)[C@H](CO)NC(=O)[C@H](CO)NC(=O)[C@H](CC(C)C)NC(=O)[C@H](CCCCN)NC(=O)[C@H](CCCNC(=N)N)NC(=O)[C@H](CCCNC(=N)N)NC(=O)[C@H](CCCNC(=N)N)NC(=O)[C@H](CCC(N)=O)NC(=O)[C@H](CCCNC(=N)N)NC(=O)[C@H](CCCNC(=N)N)NC(=O)[C@H](CCCCN)NC(=O)[C@H](CCCCN)NC(=O)[C@H](CCCNC(=N)N)NC(=O)CNC(=O)[C@@H](N)Cc1ccc(O)cc1)C(=O)N[C@@H](CCC(=O)O)C(=O)N[C@@H](CO)C(=O)N[C@@H](CC(=O)O)C(=O)N[C@H](C(=O)O)C(C)C [NA-1] (H-YGRKKRRQRRRKLSSIESDV-OH; N-terminus and C-terminus assumed),LLPS once complexed with the ePSD,[2],induces LLPS
same,promotion of LLPS of ePSD,[3],able to promote LLPS
same,LLPS induction in the PSD-95 containing ePSD,[3]; [7],could induce LLPS
same,LLPS induction for PSD-95 alone by known inhibitors,[4],able
same,pH below which LLPS of PSD-95 is induced,[5],below 7.4 pH
YGRKKRRQRRR-NPEG4-di-IETAA [AVLX-144-AA],effect on ePSD LLPS formation,"[3]; SDS-PAGE sedimentation, ePSD 3 μM, compared with AVLX-144",largely compromised the ability to drive LLPS
YGRKKRRQRRR [TAT11],promotion of LLPS of ePSD,[3],able to promote LLPS
same,LLPS induction of the ePSD,"[3]; SDS-PAGE sedimentation, peptide 10 μM, ePSD 3 μM",induced LLPS
same,chemical shift perturbations in 1H-15N-HSQC,[6],did not result in any chemical shift perturbations
YGRKKRRQRRR-NPEG4-di-IETDV [AVLX-144],LLPS induction in the PSD-95 containing ePSD,[3]; [7],induced LLPS to a minor extent
same,pH below which LLPS of PSD-95 is induced,[5],below 6.4 pH

# Source: paper PMC8844826 (iScience, 2022)
